Patent US11667652B2, “MCL1 inhibitors” (Gilead Sciences, Inc., priority 2019, dated 2023)
Like-named read-outs stand apart in the source and are kept apart here.

What was measured:
SKBR3 cells = assay: SKBR3 Cell Viability Assay; format: cell-based; settings: CellTiter Glo, read-out: MCL1 CV SKBR3 EC50
Summary of the method: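 SKBR3 cells (6,000/well, McCoy's 5A + 10% FBS) were added onto pre-spotted serial compound dilutions and incubated 72 h at 37° C, 5% CO2. Viability was read by CellTiter-Glo luminescence, with % inhibition normalised to DMSO (negative) and 10 μM puromycin (positive).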

MCL1/Bim = MCL1/Bim (Homo sapiens (Human), UniProt Q07820); assay: MCL1/Bim Binding AlphaLISA Assay; settings: recombinant human 6xHis-MCL1 (171-327), biotinylated Bim peptide (51-76)
Summary of the method: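 AlphaLISA with 0.0625 nM human 6×His-MCL1 (171-327) and 0.0625 nM biotinylated Bim (51-76) peptide in 20 mM Hepes pH 7.5, 150 mM NaCl, 0.002% Brij 35, 1 mM DTT, 0.01% BSA. Compound preincubated with MCL1 1 h, Bim added 2 h, then acceptor and donor beads 1 h each; % inhibition versus DMSO and no-protein/peptide controls.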

[1] = Homo sapiens, SK-BR-3, 72 hours

MCL1/Bim, sequence (Q07820 171-327): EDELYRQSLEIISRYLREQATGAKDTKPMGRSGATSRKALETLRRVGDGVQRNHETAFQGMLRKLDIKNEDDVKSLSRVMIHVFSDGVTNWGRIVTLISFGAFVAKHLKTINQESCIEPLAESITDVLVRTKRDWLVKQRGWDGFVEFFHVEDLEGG

| EC50 (SKBR3 cells; 72 hours) [nM] | IC50 (MCL1/Bim) [nM] | EC50 (SKBR3 cells; [1]) [nM] | Structure (SMILES) |
| --- | --- | --- | --- |
| 101 | 0.069 | – | COc1nn(C)cc1C(=O)N[S@@]1(=O)=NC(=O)c2ccc3c(c2)N(C[C@@H]2CC[C@H]2[C@@H](OC)[C@H]2CN(C)[C@H]4CO[C@H](C(C)C1)[C@@H]24)C[C@@]1(CCCc2cc(Cl)ccc21)CO3 (stereo partly drawn) [Example 134] |
| – | 0.057 | 92.2 | COc1nn(C)cc1C(=O)N[S@@]1(=O)=NC(=O)c2ccc3c(c2)N(C[C@@H]2CC[C@H]2[C@@H](OC)C[C@H]2CCO[C@@H]2[C@H](C)C1)C[C@@]1(CCCc2cc(Cl)ccc21)CO3 [Example 135] |
| – | 0.096 | 67.2 | COc1nn(C)cc1C(=O)N[S@@]1(=O)=NC(=O)c2ccc3c(c2)N(C[C@@H]2CC[C@H]2[C@H]2OCC[C@@H]2CC[C@H](C)C1)C[C@@]1(CCCc2cc(Cl)ccc21)CO3 [Example 136] |
| – | 0.071 | 198 | COc1nn(C)cc1C(=O)N[S@@]1(=O)=NC(=O)c2ccc3c(c2)N(C[C@@H]2CC[C@H]2[C@@H](OC)C[C@H]2CC(O)O[C@@H]2[C@H](C)C1)C[C@@]1(CCCc2cc(Cl)ccc21)CO3 (stereo partly drawn) [Example 139] |
| – | 0.067 | 138 | COc1nn(C)cc1C(=O)N[S@@]1(=O)=NC(=O)c2ccc3c(c2)N(C[C@@H]2CC[C@H]2[C@@H](OC)C[C@H]2CC(=O)O[C@@H]2[C@H](C)C1)C[C@@]1(CCCc2cc(Cl)ccc21)CO3 [Example 140] |
| 882 | 0.677 | – | C=CC[C@@H]1C[C@@H]2C[C@H](OC)[C@@H]3CC[C@H]3CN3C[C@@]4(CCCc5cc(Cl)ccc54)CCc4ccc(cc43)C(=O)N=[S@](=O)(NC(=O)c3cn(C)nc3OC)C[C@@H](C)[C@H]2O1 [Example 141] |
| 178 | 0.189 | – | COc1nn(C)cc1C(=O)N[S@@]1(=O)=NC(=O)c2ccc3c(c2)N(C[C@@H]2CC[C@H]2[C@@H](OC)C[C@@H]2[C@H](OC[C@H]2C)[C@H](C)C1)C[C@@]1(CCCc2cc(Cl)ccc21)CO3 [Example 145] |
| 532 | 0.394 | – | COc1nn(C)cc1C(=O)N[S@@]1(=O)=NC(=O)c2ccc3c(c2)N(C[C@@H]2CC[C@H]2[C@@H](OC)C[C@@H]2[C@H](OC[C@H]2C)[C@H](C)C1)C[C@@]1(CCCc2ccccc21)CO3 [Example 147] |
| 1720 | 0.426 | – | COc1nn(C)cc1C(=O)N[S@@]1(=O)=NC(=O)c2ccc3c(c2)N(C[C@@H]2CC[C@H]2[C@@H](OC)C[C@@H]2[C@H](OC[C@@H]2C)[C@H](C)C1)C[C@@]1(CCCc2ccccc21)CO3 [Example 148] |
| – | 0.378 | 287 | COc1nn(C)cc1C(=O)N[S@@]1(=O)=NC(=O)c2ccc3c(c2)N(C[C@@H]2CC[C@H]2[C@@H](OC)/C=C/[C@@H]2OCC[C@@H]1[C@H]2C)C[C@@]1(CCCc2cc(Cl)ccc21)CC3 [Example 149] |
| – | 0.056 | 422 | COc1nn(C)cc1C(=O)N[S@@]1(=O)=NC(=O)c2ccc3c(c2)N(C[C@@H]2CC[C@H]2[C@H]2OC(=O)C[C@@H]2CC[C@H](C)C1)C[C@@]1(CCCc2cc(Cl)ccc21)CC3 [Example 151] |
| – | 0.027 | 51.4 | COc1nn(C)cc1C(=O)N[S@@]1(=O)=NC(=O)c2ccc3c(c2)N(C[C@@H]2CC[C@H]2[C@H]2O[C@H](CCN(C)C)C[C@@H]2CC[C@H](C)C1)C[C@@]1(CCCc2cc(Cl)ccc21)CO3 [Example 152] |
| 1000 | 0.189 | – | COc1nn(C)cc1C(=O)N[S@@]1(=O)=NC(=O)c2ccc3c(c2)N(C[C@@H]2CC[C@H]2/C=C/[C@@H]2OCCO[C@@H]2[C@H](C)C1)C[C@@]1(CCCc2cc(Cl)ccc21)CO3 [Example 153] |
| 1470 | 0.321 | – | COc1nn(C)cc1C(=O)N[S@@]1(=O)=NC(=O)c2ccc3c(c2)N(C[C@@H]2CC[C@H]2/C=C/[C@H]2OCCO[C@@H]2[C@H](C)C1)C[C@@]1(CCCc2cc(Cl)ccc21)CO3 [Example 154] |
| 368 | 0.393 | – | COc1nn(C)cc1C(=O)N[S@@]1(=O)=NC(=O)c2ccc3c(c2)N(C[C@@H]2CC[C@H]2[C@@H]2/C=C/[C@H](OCCCC(=O)O2)[C@H](C)C1)C[C@@]1(CCCc2cc(Cl)ccc21)CO3 [Example 156] |
| 229 | 0.366 | – | COc1nn(C)cc1C(=O)N[S@@]1(=O)=NC(=O)c2ccc3c(c2)N(C[C@@H]2CC[C@H]2[C@@H]2/C=C/[C@@H](OCCCC(=O)O2)[C@H](C)C1)C[C@@]1(CCCc2cc(Cl)ccc21)CO3 [Example 157] |
| 1950 | 3.86 | – | CCO/C1=C/C[C@H](OC)[C@@H]2CC[C@H]2CN2C[C@@]3(CCCc4cc(Cl)ccc43)COc3ccc(cc32)C(=O)N=[S@](=O)(NC(=O)c2cn(C)nc2OC)[C@H](C)[C@H]1C [Example 158] |

| EC50 (SKBR3 cells; 72 hours) [nM] | IC50 (MCL1/Bim) [nM] | EC50 (SKBR3 cells; [1]) [nM] | Structure (SMILES) |
| --- | --- | --- | --- |
| 381 | 0.689 | – | COc1nn(C)cc1C(=O)N[S@@]1(=O)=NC(=O)c2ccc3c(c2)N(C[C@@H]2CC[C@H]2[C@@H](OC)C[C@H]2CCO[C@@H]2[C@H](C)[C@H]1C)C[C@@]1(CCCc2cc(Cl)ccc21)CO3 [Example 159] |
| – | 0.214 | 331 | COc1nn(C)cc1C(=O)N[S@@]1(=O)=NC(=O)c2ccc3c(c2)N(C[C@@H]2CC[C@H]2[C@@H](OC)C[C@H]2CCO[C@@H]2CC1)C[C@@]1(CCCc2cc(Cl)ccc21)CO3 [Example 160] |
| – | 0.089 | 33.8 | COc1nn(C)cc1C(=O)N[S@@]1(=O)=NC(=O)c2ccc3c(c2F)N(C[C@@H]2CC[C@H]2[C@@H](OC)/C=C/C[C@H](C)C1)C[C@@]1(CCCc2cc(Cl)ccc21)CO3 [Example 161] |
| – | 0.053 | 27.7 | COc1nn(C)cc1C(=O)N[S@@]1(=O)=NC(=O)c2ccc3c(c2F)N(C[C@@H]2CC[C@H]2C(OC)/C=C/[C@H](OC)[C@H](C)C1)C[C@@]1(CCCc2cc(Cl)ccc21)CO3 (stereo partly drawn) [Example 162] |
| – | 0.105 | 88.1 | CCn1cc(C(=O)N[S@@]2(=O)=NC(=O)c3ccc4c(c3)N(C[C@@H]3CC[C@H]3[C@@H](OC)/C=C/C[C@H](C)C2)C[C@]2(CO4)C[C@@H]3C[C@@H]3c3cc(Cl)ccc32)cn1 [Example 164] |
| – | 0.18 | 369 | CO[C@H]1/C=C/C[C@H](C)C[S@@](=O)(NC(=O)NCC2CC2)=NC(=O)c2ccc3c(c2)N(C[C@@H]2CC[C@H]21)C[C@]1(CO3)C[C@@H]2C[C@@H]2c2cc(Cl)ccc21 [Example 165] |
| – | 0.171 | 190 | CO[C@H]1/C=C/C[C@H](C)C[S@@](=O)(NC(=O)NC2CC2)=NC(=O)c2ccc3c(c2)N(C[C@@H]2CC[C@H]21)C[C@]1(CO3)C[C@@H]2C[C@@H]2c2cc(Cl)ccc21 [Example 166] |
| – | 0.101 | 46.3 | CO[C@H]1/C=C/C[C@H](C)C[S@@](=O)(NC(=O)c2cnn(C)c2)=NC(=O)c2ccc3c(c2)N(C[C@@H]2CC[C@H]21)C[C@]1(CO3)C[C@@H]2C[C@@H]2c2cc(Cl)ccc21 [Example 167] |
| – | 0.233 | 94 | CO[C@H]1/C=C/C[C@H](C)C[S@@](=O)(NC(=O)c2cc3n(c2)CCOC3)=NC(=O)c2ccc3c(c2)N(C[C@@H]2CC[C@H]21)C[C@]1(CO3)C[C@@H]2C[C@@H]2c2cc(Cl)ccc21 [Example 168] |
| – | 0.048 | 215 | CO[C@H]1/C=C/C[C@H](C)[C@@H](C)[S@@](=O)(NC(=O)COC2CCOCC2)=NC(=O)c2ccc3c(c2)N(C[C@@H]2CC[C@H]21)C[C@]1(CO3)C[C@@H]2C[C@@H]2c2cc(Cl)ccc21 [Example 169] |
| – | 0.155 | 113 | CCn1cc(C(=O)N[S@@]2(=O)=NC(=O)c3ccc4c(c3)N(C[C@@H]3CC[C@H]3[C@@H](OC)/C=C/C[C@H](C)[C@H]2C)C[C@]2(CO4)C[C@@H]3C[C@@H]3c3cc(Cl)ccc32)cn1 [Example 170] |
| – | 0.605 | 160 | CO[C@H]1/C=C/C[C@H](C)[C@@H](C)[S@@](=O)(NC(=O)c2cc3n(c2)CCOC3)=NC(=O)c2ccc3c(c2)N(C[C@@H]2CC[C@H]21)C[C@]1(CO3)C[C@@H]2C[C@@H]2c2cc(Cl)ccc21 [Example 172] |
| – | 0.1 | 310 | CO[C@H]1/C=C/CCC[S@@](=O)(NC(=O)c2cnn(C)c2)=NC(=O)c2ccc3c(c2)N(C[C@@H]2CC[C@H]21)C[C@]1(CO3)C[C@@H]2C[C@@H]2c2cc(Cl)ccc21 [Example 173] |
| – | 0.25 | 354 | CO[C@H]1/C=C/CCC[S@@](=O)(NC(=O)c2cc3n(c2)CCOC3)=NC(=O)c2ccc3c(c2)N(C[C@@H]2CC[C@H]21)C[C@]1(CO3)C[C@@H]2C[C@@H]2c2cc(Cl)ccc21 [Example 174] |
| – | 0.24 | 638 | CO[C@H]1/C=C/CCC[S@@](=O)(NC(=O)NC2CC2)=NC(=O)c2ccc3c(c2)N(C[C@@H]2CC[C@H]21)C[C@]1(CO3)C[C@@H]2C[C@@H]2c2cc(Cl)ccc21 [Example 175] |
| – | 0.06 | 72.5 | CO[C@H]1/C=C/C[C@H](C)C[S@@](=O)(NC(=O)c2cnn(C)c2)=NC(=O)c2ccc3c(c2)N(C[C@@H]2CC[C@H]21)C[C@]1(CO3)SCCc2cc(Cl)ccc21 [Example 176] |
| – | 0.05 | 25.9 | CCn1cc(C(=O)N[S@@]2(=O)=NC(=O)c3ccc4c(c3)N(C[C@@H]3CC[C@H]3[C@@H](OC)/C=C/C[C@H](C)C2)C[C@]2(CO4)SCCc3cc(Cl)ccc32)cn1 [Example 178] |

| Structure (SMILES) | EC50 (SKBR3 cells; 72 hours) [nM] | IC50 (MCL1/Bim) [nM] | EC50 (SKBR3 cells; [1]) [nM] |
| --- | --- | --- | --- |
| COc1nn(C)cc1C(=O)N[S@@]1(=O)=NC(=O)c2ccc3c(c2)N(C[C@@H]2CC[C@H]2[C@@H](OC)C[C@H]2C[C@H](CCN(C)C)O[C@@H]2[C@H](C)C1)C[C@@]1(CCCc2cc(Cl)ccc21)CO3 [Example 142] | 106 | 0.06 | – |
| COc1nn(C)cc1C(=O)N[S@@]1(=O)=NC(=O)c2ccc3c(c2)N(C[C@@H]2CC[C@H]2[C@@H](OC)CC2CC(CCN(C)C)OC2[C@H](C)C1)C[C@@]1(CCCc2cc(Cl)ccc21)CO3 (stereo partly drawn) [Example 143] | 37.5 | 0.037 | – |
